Assay results taken from patent US8673908B2, “Kynurenine production inhibitor” (Kyowa Hakko Kirin Co., Ltd., priority 2008, dated 2014).
Where two headings read alike, the source gives them in different places.

Key:
[1] = tested on: kynurenine production in IFN-γ-treated KATO-III cells; assay: Inhibitory activity on kynurenine production (Test Example 1); type: cell-based; details: Homo sapiens, IFN-γ treatment, culture for 96 hours, read-out: IC50 value, inhibition of kynurenine production
Summary of the method: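 Read-out is absorbance at 480 nm of medium treated with trichloroacetic acid, then p-dimethylaminobenzaldehyde, to quantify kynurenine. DMSO-only wells with and without IFN-γ serve as references. Cells were KATO-III, 2,000 per well, 96 h at 37 °C/5% CO2 with compound (DMSO ≤0.1%) and IFN-γ at 31.25 ng/mL in the added suspension.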

[2] = tested on: 4T1 mouse breast cancer cells; assay: Antitumor effect in mice transplanted with 4T1 cells (Test Example 2); type: in vivo, BALB/c mice; details: for T/C: oral, once or twice daily
Description: 5-week-old BALB/c mice (male, supplied from CLEA Japan, Inc.) were purchased. After quarantine and stabilization, mice which favorably gained their weight and had no apparent abnormalities were used in the test. The test started from 6 weeks of age. The mice were housed in groups of 6 mice per plastic cage with free access to commercial solid feed and water in a breeding room in which the room temperature was 19° C. to 25° C., the humidity was 30 to 70% and the light was kept on for 12 hours a day (7:00 a.m. to 7:00 p.m.).
The abdominal hair of the BALB/c mice was shaved on the day before the test. Transplantation was performed by subcutaneous injection of a suspension containing 1×10^6 4T1 mouse breast cancer cells in 100 μL of phosphate buffered saline (PBS) from the shaved region of each mouse.
When the tumor volume reached 30 to 80 mm^3, the mice were divided into groups so that the average tumor volume of each group was equal. The test compound was suspended in 0.5% (w/v) methylcellulose 400 cP (manufactured by Wako Pure Chemical Industries, Ltd.), and the suspension was orally administered to each mouse of the corresponding group once or twice daily. The tumor volume was calculated using the formula (a×b^2)/2 (a: tumor major axis, b: tumor minor axis). The tumor volume (V) was measured twice or three times a week, and the tumor growth rate (V/V0) was calculated by division of the tumor volume (V) by the tumor volume on the day of the first administration (V0). The T/C (treatment group/control group) value was calculated by division of the V/V0 value of the test compound treatment group by the V/V0 value of the control group, based on which the antitumor effect was evaluated.
Statistical analysis was performed on the tumor volumes of the control group and the treatment group, using student's T-test. If the p value was <0.05, we considered the difference significant.

kynurenine production = details: competes with tryptophan; cited from earlier work
T cells = details: in the presence of IDO-expressing cancer cells and dendritic cells; cited from earlier work
allogeneic pregnant mice = details: cited from earlier work
mouse melanoma cells = details: cited from earlier work
[3] = Day 4 and Day 7 after administration

CCCS(=O)(=O)Nc1nc2ccccc2nc1OC(c1cccnc1)C(F)(F)F (centres unmarked) [Compound 179, N-{3-[2,2,2-trifluoro-1-(pyridin-3-yl)ethoxy]quinoxalin-2-yl}propane-1-sulfonamide]
IC50 [1]: < 1000 nM
T/C ([2]; Day 4, dose 0.1 mg/kg): 0.76
tumor growth inhibition (in words) [2, 3]: significantly inhibited tumor growth
T/C ([2]; Day 7, dose 0.1 mg/kg): 0.50

O=S(=O)(Nc1nc2ccccc2nc1OC(c1cccnc1)C(F)(F)F)c1cccc(Cl)c1Cl (centres unmarked) [Compound 20, 2,3-dichloro-N-{3-[2,2,2-trifluoro-1-(pyridin-3-yl)ethoxy]-quinoxalin-2-yl}benzenesulfonamide]
IC50 [1]: < 1000 nM
T/C ([2]; Day 4, dose 10 mg/kg): 0.68
tumor growth inhibition (in words) [2, 3]: significantly inhibited tumor growth
T/C ([2]; Day 7, dose 10 mg/kg): 0.69

CC(Oc1nc2ccccc2nc1NS(=O)(=O)c1cccc(Cl)c1Cl)c1cccnc1 (centres unmarked) [Compound 16, 2,3-dichloro-N-{3-[1-(pyridin-3-yl)ethoxy]quinoxalin-2-yl}-benzenesulfonamide]
IC50 [1]: < 1000 nM
T/C ([2]; Day 3, dose 100 mg/kg): 0.62
tumor growth inhibition (in words) ([2]; Day 3 and Day 7 after administration): significantly inhibited tumor growth
T/C ([2]; Day 7, dose 100 mg/kg): 0.58

Cn1cc(C[C@H](N)C(=O)O)c2ccccc21 [Compound 1-MT, 1-methyltryptophan]
effect on kynurenine production (kynurenine production): inhibits kynurenine production
suppression of T cell proliferation (T cells): cancelled
MHC-restricted rejection (allogeneic pregnant mice): induces major histocompatibility complex (MHC)-restricted rejection
antitumor effect (mouse melanoma cells; immunodeficient mice): disappears
antitumor effect (mouse melanoma cells; mice bearing mouse melanoma cells): shows an antitumor effect

O=S(=O)(Nc1nc2ccccc2nc1OCc1ccc2ccccc2c1)c1ccc(Cl)c(Cl)c1 [Compound 30, 3,4-dichloro-N-{3-[(2-naphthyl)methoxy]quinoxalin-2-yl}-benzenesulfonamide]
IC50 [1]: 1000 to 10000 nM

CCCS(=O)(=O)Nc1nc2ccccc2nc1OC(C1CCOCC1)C(F)(F)F (centres unmarked) [Compound 215, N-{3-[2,2,2-trifluoro-1-(tetrahydro-2H-pyran-4-yl)ethoxy]-quinoxalin-2-yl}propane-1-sulfonamide]
IC50 [1]: < 1000 nM

O=S(=O)(Nc1nc2ccccc2nc1OCc1ccc2ccccc2c1)c1cc(Cl)ccc1Cl [Compound 28, 2,5-dichloro-N-{3-[(2-naphthyl)methoxy]quinoxalin-2-yl}-benzenesulfonamide]
IC50 [1]: < 1000 nM

O=S(=O)(Nc1nc2ccccc2nc1OC(c1cccnc1)C(F)(F)F)c1cc2ccccc2s1 (centres unmarked) [Compound 164, N-{3-[2,2,2-trifluoro-1-(pyridin-3-yl)ethoxy]quinoxalin-2-yl}benzo[b]thiophene-2-sulfonamide]
IC50 [1]: < 1000 nM

O=S(=O)(Nc1nc2ccccc2nc1OC(c1cnc(Br)s1)C(F)(F)F)c1ccccc1Cl (centres unmarked) [Compound 126, 2-chloro-N-{3-[2,2,2-trifluoro-1-(2-bromothiazol-5-yl)-ethoxy]quinoxalin-2-yl}benzenesulfonamide]
IC50 [1]: < 1000 nM

O=S(=O)(Nc1nc2ccccc2nc1OCc1ccc2ccccc2c1)c1ccccc1C(F)(F)F [Compound 21, 2-(trifluoromethyl)-N-{3-[(2-naphthyl)methoxy]quinoxalin-2-yl}benzenesulfonamide]
IC50 [1]: < 1000 nM

CCC(Oc1nc2ccccc2nc1NS(=O)(=O)c1cccc(Cl)c1Cl)c1cccnc1 (centres unmarked) [Compound 31, 2,3-dichloro-N-{3-[1-(pyridin-3-yl)propoxy]quinoxalin-2-yl}benzenesulfonamide]
IC50 [1]: < 1000 nM

O=S(=O)(Nc1nc2ccccc2nc1OC(c1ccc(CO)cc1)C(F)(F)F)c1ccccc1Cl (centres unmarked) [Compound 60, 2-chloro-N-{3-[2,2,2-trifluoro-1-(4-hydroxymethylphenyl)-ethoxy]quinoxalin-2-yl}benzenesulfonamide]
IC50 [1]: < 1000 nM

CCCS(=O)(=O)Nc1nc2ccccc2nc1OC(c1cncc(C)c1)C(F)(F)F (centres unmarked) [Compound 331, N-{3-[2,2,2-trifluoro-1-(5-methylpyridin-3-yl)ethoxy]-quinoxalin-2-yl}propane-1-sulfonamide]
IC50 [1]: < 1000 nM
